The test has as its target Transient receptor potential cation channel subfamily A member 1 (Homo sapiens, UniProt O75762). Nature of the test: Inhibition of cinnamaldehyde-activated full length human TRPA1 channel expressed in 293T-Rex cells monitored at 5 sec interval by manual patch clamp electrophysiological method. The format is cell-based. A general note: The patch-clamp technique gives a direct electrical read-out from membranes.

A word on the IC50: it is the concentration at which inhibition is half-maximal. A high value points to lower potency.

Chain of Transient receptor potential cation channel subfamily A member 1 (O75762 whole entry): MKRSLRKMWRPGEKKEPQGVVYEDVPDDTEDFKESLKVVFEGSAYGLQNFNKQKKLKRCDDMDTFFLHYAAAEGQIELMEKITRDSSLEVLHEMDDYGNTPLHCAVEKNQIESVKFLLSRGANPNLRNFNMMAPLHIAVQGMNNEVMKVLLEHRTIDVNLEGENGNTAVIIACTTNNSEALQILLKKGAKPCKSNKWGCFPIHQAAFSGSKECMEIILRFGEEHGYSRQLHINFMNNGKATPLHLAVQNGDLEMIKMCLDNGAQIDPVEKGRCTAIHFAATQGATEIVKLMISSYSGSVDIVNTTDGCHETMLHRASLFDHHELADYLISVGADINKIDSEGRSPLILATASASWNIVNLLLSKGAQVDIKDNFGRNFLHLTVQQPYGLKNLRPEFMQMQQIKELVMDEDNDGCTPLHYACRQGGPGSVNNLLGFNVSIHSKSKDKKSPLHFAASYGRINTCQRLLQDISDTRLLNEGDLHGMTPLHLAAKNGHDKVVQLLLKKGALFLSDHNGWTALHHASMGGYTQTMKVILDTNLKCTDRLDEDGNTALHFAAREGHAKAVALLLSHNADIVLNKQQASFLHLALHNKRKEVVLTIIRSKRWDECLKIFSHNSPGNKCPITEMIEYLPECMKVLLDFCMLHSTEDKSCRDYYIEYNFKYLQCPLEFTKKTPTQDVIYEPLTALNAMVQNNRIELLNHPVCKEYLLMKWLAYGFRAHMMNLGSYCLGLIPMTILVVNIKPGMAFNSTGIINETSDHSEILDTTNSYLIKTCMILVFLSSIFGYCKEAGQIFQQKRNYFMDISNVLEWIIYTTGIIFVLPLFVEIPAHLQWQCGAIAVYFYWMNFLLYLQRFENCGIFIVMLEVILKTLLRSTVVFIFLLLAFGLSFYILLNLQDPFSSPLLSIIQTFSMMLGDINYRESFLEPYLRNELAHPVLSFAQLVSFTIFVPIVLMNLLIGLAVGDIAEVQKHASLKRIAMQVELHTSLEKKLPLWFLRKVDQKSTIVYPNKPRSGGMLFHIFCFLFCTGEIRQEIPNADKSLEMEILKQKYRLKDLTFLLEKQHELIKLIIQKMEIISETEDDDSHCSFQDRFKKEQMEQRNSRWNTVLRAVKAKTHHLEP

In the case of `O=C(NCC(Cc1ccc(F)cc1)N1CCC(O)(C(F)(F)F)CC1)C1(c2ccc(Cl)cc2)CC1` (stereo not drawn), the IC50 was 2 nM.

On to `O=C(NCC(Cc1ccccc1)N1CCC(O)(C(F)(F)F)CC1)C1(c2ccc(Cl)cc2)CCCC1` (stereo not drawn), for which the midpoint of inhibition, the IC50, lay at 1 nM.

In the case of `O=C(NCC(Cc1ccccc1)N1CCC(O)(C(F)(F)F)CC1)C1(c2ccc(Cl)cc2)CC1` (stereo not drawn), the IC50 is 14 nM.

The molecule `CC(C)(C(=O)NCC(Cc1ccccc1)N1CCC(O)(C(F)(F)F)CC1)c1ccccc1` (stereo not drawn) came in with a concentration for half-maximal inhibition (IC50) of 43 nM.

Molecule `N#Cc1ccc(CC(CNC(=O)C2(c3ccc(Cl)cc3)CCCC2)N2CCC(O)(C(F)(F)F)CC2)cc1` (stereo not drawn) had an IC50 of 63 nM.

In the case of `O=C(NCC(Cc1ccccc1)N1CCC(C(F)(F)F)CC1)C1(c2ccc(Cl)cc2)CCCC1` (stereo not drawn), the IC50 was 7 nM.

In the case of `O=C(NCC(Cc1ccccc1)N1CCC(O)(C(F)(F)F)CC1)C1(c2ccc(F)cc2)CCCCC1` (stereo not drawn), the half-inhibitory concentration (IC50) turned out to be 4 nM.

Molecule `O=C(NCC(Cc1ccc(Br)cc1)N1CCC(O)(C(F)(F)F)CC1)C1(c2ccc(Cl)cc2)CCCC1` (stereo not drawn) had a concentration for half-maximal inhibition (IC50) of 12 nM.

For the origin of these results see ChEMBL document CHEMBL3856226, “N-(2-Alkyleneimino-3-phenylpropyl)acetamide Compounds and Their Use against Pain and Pruritus via Inhibition of TRPA1 Channels” (ACS Med Chem Lett, 2016).
